Experimental data as given in US6914045B2, “Glycopeptide antibiotics” (Wyeth Holdings Corporation, priority 2001, dated 2005).

How the values were obtained:
Assay in all cases: in vitro antibacterial evaluation, MIC by broth dilution
Format in all cases: cell-based
Escherichia coli = conditions: 18 hours at 35° C.
Method in brief: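 Broth dilution in Muller-Hinton II medium per NCCLS standard M7-A2, with an inoculum of 5×10^5 CFU/mL and antibiotic tested over 64-0.06 μg/mL. MIC was taken as the lowest concentration inhibiting visible growth.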

Streptococcus sp. = conditions: broth dilution, 18 hours at 35° C.
Method in brief: (§1)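 Inoculum 5×10^5 CFU/mL; concentrations 64 to 0.06 μg/mL; MIC defined as lowest inhibitory level. Conducted by broth dilution under NCCLS guidelines.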

Staphylococcus sp. = conditions: broth dilution, 18 hours at 35° C.; for MIC Staphylococcus aureus (ATCC 29213): strain ATCC 29213; for MIC Staphylococcus aureus (GC 1131): strain GC 1131; for MIC Staphylococcus aureus (GC 4541): strain GC 4541; for MIC Staphylococcus aureus (GC 4542): strain GC 4542; for MIC Staphylococcus aureus (GC 4544): strain GC 4544; for MIC Staphylococcus aureus (GC 4545): strain GC 4545
Method in brief: as §1

Enterococcus sp. = conditions: broth dilution, 18 hours at 35° C.
Method in brief: as §1

[1] = Enterococcus faecalis (ATCC 29212)
[2] = Enterococcus faecalis (GC 4552)
[3] = Enterococcus faecalis (GC 4553)
[4] = Enterococcus faecalis (GC 4554)

Di-N-(4-tert-butylbenzyl)-cyclo[glycyl-β-methylphenylalanyl-O-(4-O-hexopyranosylhexopyranosyl)tyrosyl-3-(2-iminoimidazolidin-4-yl)seryl-3-(3-hexoopyranosyl-2-iminoimidazolidin-4-yl)serylseryl] [Example 60a]
16 µg/mL: MIC Escherichia coli (GC 4560) (Escherichia coli)
64 µg/mL: MIC Streptococcus pneumoniae (GC 1894) (Streptococcus sp.) | MIC Streptococcus pneumoniae (GC 1894) (Streptococcus sp.; strain GC 1894)
128 µg/mL: MIC Streptococcus pneumoniae (GC 4565) (Streptococcus sp.) | MIC Streptococcus pneumoniae (GC 4565) (Streptococcus sp.; strain GC 4565) | MIC Enterococcus avium (GC 4558) (Enterococcus sp.; Enterococcus avium (GC 4558)) | MIC Enterococcus faecalis (GC 4553) (Enterococcus sp.; [3]) | MIC Enterococcus faecium (GC 4557) (Enterococcus sp.; Enterococcus faecium (GC 4557)) | MIC Enterococcus avium (GC 4558) (Enterococcus sp.) | MIC Enterococcus faecalis (GC 4553) (Enterococcus sp.) | MIC Enterococcus faecium (GC 4557) (Enterococcus sp.)
>128 µg/mL: MIC Escherichia coli (ATCC 25922) (Escherichia coli) | MIC Escherichia coli (GC 4559) (Escherichia coli) | MIC Streptococcus agalactiae (GC 4564) (Streptococcus sp.) | MIC Streptococcus pneumoniae (ATCC 6301) (Streptococcus sp.) | MIC Streptococcus pyogenes (GC 4563) (Streptococcus sp.) | MIC Streptococcus pneumoniae (ATCC 6301) (Streptococcus sp.; strain ATCC 6301) | MIC Streptococcus pyogenes (GC 4563) (Streptococcus sp.; strain GC 4563) | MIC Streptococcus agalactiae (GC 4564) (Streptococcus sp.; strain GC 4564) | MIC Staphylococcus aureus (ATCC 29213) (Staphylococcus sp.) | MIC Staphylococcus aureus (GC 1131) (Staphylococcus sp.) | MIC Staphylococcus aureus (GC 3051) (Staphylococcus sp.; strain GC 3051) | MIC Staphylococcus aureus (GC 3053) (Staphylococcus sp.; strain GC 3053) | MIC Staphylococcus aureus (GC 4541) (Staphylococcus sp.) | MIC Staphylococcus aureus (GC 4542) (Staphylococcus sp.) | MIC Staphylococcus aureus-SMITH (GC 4543) (Staphylococcus sp.; strain GC 4543) | MIC Staphylococcus aureus (GC 4544) (Staphylococcus sp.) | MIC Staphylococcus aureus (GC 4545) (Staphylococcus sp.) | MIC Staphylococcus haemolyticus (GC 4546) (Staphylococcus sp.; strain GC 4546) | MIC Coagulase Negative Staphylococcus (GC 4547) (Staphylococcus sp.; strain GC 4547) | MIC Coagulase Negative Staphylococcus (GC 4548) (Staphylococcus sp.; strain GC 4548) | MIC Coagulase Negative Staphylococcus (GC 4549) (Staphylococcus sp.; strain GC 4549) | MIC Coagulase Negative Staphylococcus (GC 4551) (Staphylococcus sp.; strain GC 4551) | MIC Coagulase Negative Staphylococcus (GC 6257) (Staphylococcus sp.; strain GC 6257) | MIC Enterococcus faecalis (ATCC 29212) (Enterococcus sp.; [1]) | MIC Enterococcus faecalis (GC 4552) (Enterococcus sp.; [2]) | MIC Enterococcus faecalis (GC 4554) (Enterococcus sp.; [4]) | MIC Enterococcus faecalis (GC 6189) (Enterococcus sp.; Enterococcus faecalis (GC 6189)) | MIC Enterococcus faecium (GC 2243) (Enterococcus sp.; Enterococcus faecium (GC 2243)) | MIC Enterococcus faecium (GC 4556) (Enterococcus sp.; Enterococcus faecium (GC 4556)) | MIC Enterococcus faecalis (ATCC 29212) (Enterococcus sp.) | MIC Enterococcus faecalis (GC 2242) (Enterococcus sp.) | MIC Enterococcus faecalis (GC 2691) (Enterococcus sp.) | MIC Enterococcus faecalis (GC 3059) (Enterococcus sp.) | MIC Enterococcus faecalis (GC 4552) (Enterococcus sp.) | MIC Enterococcus faecalis (GC 4554) (Enterococcus sp.) | MIC Enterococcus faecalis (GC 6189) (Enterococcus sp.) | MIC Enterococcus faecium (GC 2243) (Enterococcus sp.) | MIC Enterococcus faecium (GC 4556) (Enterococcus sp.) | MIC Enterococcus faecalis (GC 2242) (Enterococcus sp.; strain GC 2242) | MIC Enterococcus faecalis (GC 2691) (Enterococcus sp.; strain GC 2691) | MIC Enterococcus faecalis (GC 3059) (Enterococcus sp.; strain GC 3059)

CC(c1ccccc1)C1NC(=O)CNC(=O)C(CO)NC(=O)C(C(O)C2CNC(=N)N2C2OC(COC(=O)C(c3ccccc3)c3ccccc3)C(O)C(O)C2O)NC(=O)C(C(O)C2CNC(=N)N2)NC(=O)C(Cc2ccc(OC3OC(CO)C(OC4OC(CO)C(O)C(O)C4O)C(O)C3O)cc2)NC1=O (stereo not drawn) [Example 96, Cyclo[glycyl-β-methylphenylalanyl-O-(4-O-hexopyranosylhexoipyranosyl)tyrosyl-3-(2-iminoimidazolidin-4-yl)seryl-3-[3-[6-O-(diphenylacetyl)hexopyranosyl]-2-iminoimidazolidin-4-yl]-serylseryl]]
>128 µg/mL: MIC Escherichia coli (ATCC 25922) (Escherichia coli) | MIC Streptococcus agalactiae (GC 4564) (Streptococcus sp.) | MIC Streptococcus pneumoniae (GC 4565) (Streptococcus sp.) | MIC Streptococcus pyogenes (ID-3187) (Streptococcus sp.) | MIC Streptococcus agalactiae (GC 4564) (Streptococcus sp.; strain GC 4564) | MIC Streptococcus pneumoniae (GC 4565) (Streptococcus sp.; strain GC 4565) | MIC Streptococcus pyogenes (ID-3187) (Streptococcus sp.; strain ID-3187) | MIC Coagulase Negative Staphylococcus (GC 4547) (Staphylococcus sp.) | MIC Coagulase Negative Staphylococcus (GC 4548) (Staphylococcus sp.) | MIC Coagulase Negative Staphylococcus (GC 4549) (Staphylococcus sp.) | MIC Coagulase Negative Staphylococcus (GC 4551) (Staphylococcus sp.) | MIC Staphylococcus aureus-SMITH (GC 4543) (Staphylococcus sp.) | MIC Staphylococcus haemolyticus (GC 4546) (Staphylococcus sp.) | MIC Staphylococcus aureus (ATCC 29213) (Staphylococcus sp.) | MIC Staphylococcus aureus (GC 1131) (Staphylococcus sp.) | MIC Staphylococcus aureus (GC 4541) (Staphylococcus sp.) | MIC Staphylococcus aureus (GC 4542) (Staphylococcus sp.) | MIC Staphylococcus aureus-SMITH (GC 4543) (Staphylococcus sp.; strain GC 4543) | MIC Staphylococcus aureus (GC 4544) (Staphylococcus sp.) | MIC Staphylococcus aureus (GC 4545) (Staphylococcus sp.) | MIC Staphylococcus haemolyticus (GC 4546) (Staphylococcus sp.; strain GC 4546) | MIC Coagulase Negative Staphylococcus (GC 4547) (Staphylococcus sp.; strain GC 4547) | MIC Coagulase Negative Staphylococcus (GC 4548) (Staphylococcus sp.; strain GC 4548) | MIC Coagulase Negative Staphylococcus (GC 4549) (Staphylococcus sp.; strain GC 4549) | MIC Coagulase Negative Staphylococcus (GC 4551) (Staphylococcus sp.; strain GC 4551) | MIC Enterococcus avium (GC 4558) (Enterococcus sp.; Enterococcus avium (GC 4558)) | MIC Enterococcus faecalis (ATCC 29212) (Enterococcus sp.; [1]) | MIC Enterococcus faecalis (GC 4552) (Enterococcus sp.; [2]) | MIC Enterococcus faecalis (GC 4553) (Enterococcus sp.; [3]) | MIC Enterococcus faecalis (GC 4554) (Enterococcus sp.; [4]) | MIC Enterococcus faecium (GC 2243) (Enterococcus sp.; Enterococcus faecium (GC 2243)) | MIC Enterococcus faecium (GC 4556) (Enterococcus sp.; Enterococcus faecium (GC 4556)) | MIC Enterococcus avium (GC 4558) (Enterococcus sp.) | MIC Enterococcus faecalis (ATCC 29212) (Enterococcus sp.) | MIC Enterococcus faecalis (GC 2242) (Enterococcus sp.) | MIC Enterococcus faecalis (GC 4552) (Enterococcus sp.) | MIC Enterococcus faecalis (GC 4553) (Enterococcus sp.) | MIC Enterococcus faecalis (GC 4554) (Enterococcus sp.) | MIC Enterococcus faecium (GC 2243) (Enterococcus sp.) | MIC Enterococcus faecium (GC 4556) (Enterococcus sp.) | MIC Enterococcus faecalis (GC 2242) (Enterococcus sp.; strain GC 2242)
128 µg/mL: MIC Coagulase Negative Staphylococcus (ID-3941) (Staphylococcus sp.) | MIC Coagulase Negative Staphylococcus (ID-3941) (Staphylococcus sp.; strain ID-3941) | MIC Enterococcus faecium (GC 4557) (Enterococcus sp.; Enterococcus faecium (GC 4557)) | MIC Enterococcus faecium (GC 4557) (Enterococcus sp.)
